Series [1] can be described thus: Acute randomized placebo-controlled crossover trial of 200 mg TeaCrine: anchored VAS questionnaires. In kind it is in vivo, human. As for the experimental part:
In order to examine the beneficial experiential effects and psychometric properties of theacrine supplementation in healthy subjects, explore optimal dosing and potential cumulative effects in a healthy human cohort with a 7-day, sub-acute repetitive dosing protocol, and acquire preliminary data on various biomarkers of safety and tolerability, an experiment was performed. […] A subset of 6 subjects underwent a separate 7-day, open-label, repeated dose study comparing 100 mg, 200 mg and 400 mg of TC. The experiment was a randomized, placebo-controlled, double-blind, within-subject crossover clinical trial (for N=15 study). A further subset study was open-label, sub-acute (7-day), repetitive dosing trial (for N=6 subset). Six (6) subjects provided written and dated informed consent to participate in the 7-day repetitive dosing study between Dec. 15, 2012 and Feb. 21, 2013. A separate cohort of fifteen (15) subjects provided written and dated informed consent for the acute dose, placebo-controlled, crossover clinical trial. All subjects were in good health as determined by physical examination and medical history, between the ages of 18 and 45 (inclusive). […] Subjects were willing and able to comply with the experimental and supplement protocol. […] Physical activity levels and health history were determined using standardized questionnaires. Heart rate and blood pressure were measured using an Omron HEM-780. Standing height was determined using a wall-mounted stadiometer. […] Medical Scale. A 100 mm anchored VAS questionnaire for energy, fatigue, and concentration was distributed at each acute lab session; additional VAS questionnaires were distributed for the daily assessment over a 6-hour period during the 7-day subset study. Quest Diagnostics (Pittsburgh, Pa.) was utilized to transport and analyze all blood samples. […] Statistical Analyses for Example 1. Descriptive statistics (mean, median, SD, 95% CIs) were used to quantify subjects physical characteristics. RM ANOVA, as well analyses of co-variance (ANCOVA), using baseline scores as the co-variate (respectively), were used to analyze between trial differences. Alpha was set to 0.05 (P≤0.05) for statistical significance, and <0.10 for trends. Effect sizes were also calculated. Upon arrival for the first testing session, subjects were randomly assigned to receive their respective supplement/placebo. Each subject ingested the sponsor recommended dosage of their respective supplement (1 capsule prior to schedule of assessments). Supplements were prepared in capsule form and packaged in coded generic containers for double-blind administration.

A short description of series [2]: 7-day open-label repeated dose study of TC (N=6): VAS subjective measures. Format: in vivo, human. Conditions: 200 mg dose of theacrine over 7 days. The procedure:
A subset of 6 subjects underwent a separate 7-day, open-label, repeated dose study comparing 100 mg, 200 mg and 400 mg of TC. The experiment was a randomized, placebo-controlled, double-blind, within-subject crossover clinical trial (for N=15 study). A further subset study was open-label, sub-acute (7-day), repetitive dosing trial (for N=6 subset). Six (6) subjects provided written and dated informed consent to participate in the 7-day repetitive dosing study between Dec. 15, 2012 and Feb. 21, 2013. A separate cohort of fifteen (15) subjects provided written and dated informed consent for the acute dose, placebo-controlled, crossover clinical trial. All subjects were in good health as determined by physical examination and medical history, between the ages of 18 and 45 (inclusive). […] Subjects were willing and able to comply with the experimental and supplement protocol. Physical activity levels and health history were determined using standardized questionnaires. Heart rate and blood pressure were measured using an Omron HEM-780. Standing height was determined using a wall-mounted stadiometer. […] Medical Scale. A 100 mm anchored VAS questionnaire for energy, fatigue, and concentration was distributed at each acute lab session; additional VAS questionnaires were distributed for the daily assessment over a 6-hour period during the 7-day subset study. Quest Diagnostics (Pittsburgh, Pa.) was utilized to transport and analyze all blood samples.

Series [3] can be described thus: Theacrine-caffeine interaction study: heart rate, blood pressure, rate pressure product, tolerability. As to conditions: at the doses tested, administered alone or in combination. The text has this: Study Design and Procedures. […] Theacrine, administered as iTeaCrine.®, was provided by Compound Solutions (Carlsbad, Calif). […] Treatment sequence was randomized using a 4×4 Latin square. There was an approximate 1-week washout period between treatments for all subjects.
Test Visit Procedures. […] A catheter was inserted into the forearm vein for blood sampling. Duplicate measurements of resting heart rate and blood pressure were taken pre-dose and prior to each timed blood sample. In addition, respiratory rate was counted in one minute and body temperature was measured using an ear scanning thermometer (dual readings taken at each time).
Differences between treatment group values were determined for systolic blood pressure (SBP), diastolic blood pressure (DBP), rate pressure product, and heart rate. Parametric data were analyzed by paired Student's t tests of mean differences in values between treatment groups. Statistical significance was defined a priori as a 2-sided or <0.05.

For the compound `Cn1c(=O)c2c(n(C)c1=O)n(C)c(=O)n2C` [Theacrine, 1,3,7,9-tetramethylpurine-2,6,8-trione], the “concentration (VAS)” value in series [1] (200 mg dose of TC, single dose, trend, vs. PLA −[…], P=0.07) was “+2.4%”. Also, the “fatigue (VAS)” value in series [1] (200 mg dose of TC, single dose, vs. PLA +5.8%, P=0.04) was −6.7%. For the same compound, in series [1] (200 mg dose of TC, single dose, vs. PLA −5.7%, P=0.049), the “energy (VAS)” value is given as “+8.6%”. In addition, the “perceived energy on VAS (FIG. 2)” value in series [1] (1, 2 and 3 hours after administration, vs placebo) is “higher levels of energy”. Moreover, the “perceived fatigue on VAS (FIG. 3)” value in series [1] (60 minutes after administration, vs placebo) is recorded as “lower levels of fatigue”. Moreover, in series [2], the “anxiety (FIG. 6)” value is “decreased substantially”, the “concentration (FIG. 7)” value is “increased substantially”, the “energy (FIG. 7)” value is on record as “increased substantially” and the “fatigue (FIG. 6)” value was “decreased substantially”. Besides, in series [2], the “libido (FIG. 6)” value is recorded as “increased substantially” and the “motivation to exercise (FIG. 7)” value is “increased substantially”. The “effect on baseline hemodynamic parameters, e.g. heart rate and blood pressure” value in series [3] is on record as “no effect”.

(Values after patent US11925645B2, “Enhanced caffeinated beverage composition” (Ortho-Nutra, LLC, priority 2013, dated 2024).)
